Source: patent US20100267784A1, “NOVEL 4,5-DIHYDROISOXAZOLES WITH ESTROGENIC ACTIVITY” (priority 2007, published 2010)

What was measured:
Assay type in all cases: cell-based
[1] = biological target: T1, ERα (Homo sapiens, UniProt P03372); test: ERα reporter (luciferase) transactivation assay in transfected HEK293 cells; design: expressed in transfected cells; host or cells: HEK293; settings: sample concentration 10 μM, 24 hours, mean of at least three independent transfections
T1 sequence (P03372 1-595): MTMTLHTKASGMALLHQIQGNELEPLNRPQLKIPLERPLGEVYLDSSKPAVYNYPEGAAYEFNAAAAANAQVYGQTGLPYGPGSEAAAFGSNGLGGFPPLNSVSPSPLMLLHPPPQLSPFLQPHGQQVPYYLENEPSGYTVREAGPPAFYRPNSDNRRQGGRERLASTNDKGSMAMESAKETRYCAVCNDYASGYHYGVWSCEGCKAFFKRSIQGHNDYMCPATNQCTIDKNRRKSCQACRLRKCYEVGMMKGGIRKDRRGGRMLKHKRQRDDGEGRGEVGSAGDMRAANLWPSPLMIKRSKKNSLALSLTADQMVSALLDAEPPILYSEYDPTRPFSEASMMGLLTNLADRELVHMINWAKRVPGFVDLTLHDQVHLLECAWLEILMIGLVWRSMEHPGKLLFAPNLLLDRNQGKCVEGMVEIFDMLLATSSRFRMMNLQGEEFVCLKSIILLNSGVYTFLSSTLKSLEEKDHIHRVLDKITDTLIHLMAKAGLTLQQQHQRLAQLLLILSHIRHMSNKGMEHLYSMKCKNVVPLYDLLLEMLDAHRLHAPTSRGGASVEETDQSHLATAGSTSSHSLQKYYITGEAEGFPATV
How it was run: (§1)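 Compounds at 10 μM (or 0.1% vehicle) were applied for 24 hours to HEK293 cells previously transfected with an ERα or ERβ expression plasmid plus ERE-luciferase reporter and β-gal control. Lysate luciferase and β-galactosidase activities were read. Cells were grown in phenol-free, delipidated-serum medium; data are means ±SEM from at least three independent transfections.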

[2] = biological target: ERβ (Homo sapiens, UniProt Q92731); test: ERβ reporter (luciferase) transactivation assay in transfected HEK293 cells; design: expressed in transfected cells; host or cells: HEK293; settings: sample concentration 10 μM, 24 hours, mean of at least three independent transfections
How it was run: as §1

[3] = biological target: T1, ERα; test: ERα antagonism reporter (luciferase) assay in transfected COS-1 cells; design: expressed in transfected cells; host or cells: COS-1; settings: sample concentration 10 μM with 100 nM E2, complete antagonism corresponding to 5.7, 18 hours
Method: Determination of the Antiestrogen Activity of the Compounds.
One day before transfection, COS-1 cells were seeded into 1 ml of DMEM (Dulbecco's modified Eagle medium, Gibco) with 10% delipidated fetal bovine serum and 0,25% (vol/vol) Penicillin-Streptomysin (Euroclone) at a density of 70×10^3 cells/well. […] After transfection, the cells received treatment with test compounds giving a final concentration of 10 μM for each compound. In the antagonist test the wells were also treated with 10^−7 M estradiol. After 18 hours, the cells were washed, lysed and assayed for luciferase and normalization for β-galactosidase activities and protein concentrations. The cells were washed with 100 μl of cold phosphate buffered saline (PBS), lysed with 35 μl 1× Reporter lysis Buffer (Promega) and frosted (−70° C.) for 30 minutes. Cell lysates were placed in 1.5 ml of propylene centrifuge tubes and centrifuged with 13200 g for 5 min in room temperature. For β-galactosidase assay 10 μl of supernatant from each cell extract was transferred to a 96-well plate (96 well Elisa Microplates, PS, Microcon) and incubated for 10 min at 37° C. with 65 μl of reaction mixture consisting 0.76 gl 100×Mg-buffer, 12.5 μl ONPG (4 mg/ml), and 54.3 μl of sodium-phosphate buffer (pH 7). The reaction was stopped with treatment of 125 μl Na2CO3. […] For the study of protein concentrations 5 μl of the supernatant was transferred to a 96-well plate (96 well Elisa Microplates, PS, Microcon) and mixed with 200 μl of 1× Bio-rad protein assay reagent. The luciferase activities were measured with Thermo Luminoscan Ascent scanner and the protein concentrations and β-galactosidase activities with Thermo Labsystem Multiscan Ex scanner. Also blank and control samples were measured. During the maintenance, transfection, and treatment with tested compounds the cells were incubated in humidified atmosphere with 5% carbon dioxide at 37° C.

Sequence of ERβ (Q92731 whole entry): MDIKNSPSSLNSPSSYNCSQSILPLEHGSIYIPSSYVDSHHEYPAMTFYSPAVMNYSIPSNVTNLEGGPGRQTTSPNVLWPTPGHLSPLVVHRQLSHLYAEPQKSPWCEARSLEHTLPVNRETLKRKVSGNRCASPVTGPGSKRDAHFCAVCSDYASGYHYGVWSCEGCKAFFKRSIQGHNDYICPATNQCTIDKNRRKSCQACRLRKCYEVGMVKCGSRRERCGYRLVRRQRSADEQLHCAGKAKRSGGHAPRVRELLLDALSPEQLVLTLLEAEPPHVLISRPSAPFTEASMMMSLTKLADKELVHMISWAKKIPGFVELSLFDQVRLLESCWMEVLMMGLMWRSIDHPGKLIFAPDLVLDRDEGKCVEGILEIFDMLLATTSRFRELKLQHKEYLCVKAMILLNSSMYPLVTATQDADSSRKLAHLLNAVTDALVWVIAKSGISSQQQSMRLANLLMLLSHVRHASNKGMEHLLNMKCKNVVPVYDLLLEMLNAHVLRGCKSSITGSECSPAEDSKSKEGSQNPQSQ

SMILES: Oc1ccc(CCCC2=NOC(Cc3ccccc3)C2)cc1O (single isomer, unassigned) [102a, 5-Benzyl-3-[3-(3,4-dihydroxy-phenyl)-propyl]-4,5-dihydro-isoxazole]
- ERα receptor activation relative to 10 nM E2 corresponding 100 [1]: 0.3%
- ERβ receptor activation relative to 10 nM E2 corresponding 100 [2]: 1.3%
- ERα receptor antagonism relative to 100 nM E2 corresponding 100 [3]: 115.2

SMILES: CC1(c2ccccc2)CC(CCc2cccc(O)c2)=NO1 (single isomer, unassigned) [86b, 3-[2-(3-Hydroxy-phenyl)-ethyl]-5-methyl-5-phenyl-4,5-dihydro-isoxazole]
- ERα receptor activation relative to 10 nM E2 corresponding 100 [1]: 7.1%
- ERβ receptor activation relative to 10 nM E2 corresponding 100 [2]: −2.9%
- ERα receptor antagonism relative to 100 nM E2 corresponding 100 [3]: 101.8

SMILES: CC1(c2ccccc2)CC(CCc2ccc(O)cc2)=NO1 (single isomer, unassigned) [87a, 3-[2-(4-Hydroxy-phenyl)-ethyl]-5-methyl-5-phenyl-4,5-dihydro-isoxazole]
- ERα receptor activation relative to 10 nM E2 corresponding 100 [1]: 39.7%
- ERβ receptor activation relative to 10 nM E2 corresponding 100 [2]: 18.0%
- ERα receptor antagonism relative to 100 nM E2 corresponding 100 [3]: 63.1

SMILES: Oc1ccc(CCCC2=NOC(Cc3ccccc3)C2)cc1O (single isomer, unassigned) [102b, 5-Benzyl-3-[3-(3,4-dihydroxy-phenyl)-propyl]-4,5-dihydro-isoxazole]
- ERα receptor activation relative to 10 nM E2 corresponding 100 [1]: 2.1%
- ERβ receptor activation relative to 10 nM E2 corresponding 100 [2]: −1.3%
- ERα receptor antagonism relative to 100 nM E2 corresponding 100 [3]: 104.8

SMILES: CC1(c2ccccc2)CC(CCc2ccc(O)cc2)=NO1 (single isomer, unassigned) [87b, 3-[2-(4-Hydroxy-phenyl)-ethyl]-5-methyl-5-phenyl-4,5-dihydro-isoxazole]
- ERα receptor activation relative to 10 nM E2 corresponding 100 [1]: 18.7%
- ERβ receptor activation relative to 10 nM E2 corresponding 100 [2]: 37.4%
- ERα receptor antagonism relative to 100 nM E2 corresponding 100 [3]: 55.0

SMILES: Oc1ccc(CC2=NOC(c3ccccc3)C2)cc1 (single isomer, unassigned) [84a, 3-(4-Hydroxy-benzyl)-5-phenyl-4,5-dihydro-isoxazole]
- ERα receptor activation relative to 10 nM E2 corresponding 100 [1]: 4.8%
- ERβ receptor activation relative to 10 nM E2 corresponding 100 [2]: 0.2%
- ERα receptor antagonism relative to 100 nM E2 corresponding 100 [3]: 93.6

SMILES: CC1(c2ccccc2)CC(CCc2cccc(O)c2)=NO1 (single isomer, unassigned) [86a, 3-[2-(3-Hydroxy-phenyl)-ethyl]-5-methyl-5-phenyl-4,5-dihydro-isoxazole]
- ERα receptor activation relative to 10 nM E2 corresponding 100 [1]: 21.6%
- ERβ receptor activation relative to 10 nM E2 corresponding 100 [2]: 0.5%
- ERα receptor antagonism relative to 100 nM E2 corresponding 100 [3]: 87.3
